Marks after values point to notes of the source that are not given here. Blank lines part the entries; values can stand above or below the molecule they belong to.
Experiments:
[1] = target: T1, Na^+/Ca^2+ exchanger (Cavia porcellus, UniProt P48766); test: Na^+/Ca^2+ exchange current (INa—Ca), whole-cell patch clamp, intracellular Na^+ overload cell model; assay type: cell-based, guinea pig; parameters: Inhibitory rate of outward INa—Ca (%) / Inhibitory rate of inward INa—Ca (%): concentration or dose not given beside the values; details: for inhibitory ratio on INa—Ca at −80 mV: inward current; for inhibitory ratio on INa—Ca at +50 mV: outward current; for effective concentration (significant inhibitory effect on reverse mode Na^+/Ca^2+ exchange): intracellular Na^+ overload; for selectivity of inhibition of outward versus inward INa—Ca: biphasic ion conditioning
T1 construct: endogenous in cells; host or cells: freshly isolated guinea pig ventricular myocytes
Description: 1. Establishment of Assaying Method for Biphasical Current Detection in Na^+/Ca^2+ Exchange System
Since the reverse mode of Na^+/Ca^2+ exchange process is one of the main mechanisms involving in ischemia/reperfusion insult, it is of great importance to establish cell model represented reverse mode Na^+/Ca^2+ exchange process for the development of drugs against ischemic injury. Therefore, we successfully established cell model of reverse mode Na^+/Ca^2+ exchange system by intracellular Na^+ dialysis technique, and recorded Na^+/Ca^2+ exchange currents by patch clamp experiment.
Internal solution contained certain concentration of NaCl was filled to the microcatheter, and ion exchange process between the cellular and internal solutions was conducted after whole cell currents were recorded by patch clamp. Na^+ contained in the internal solution was dialyzed into the cell; result in the high intracellular Na^+ concentration. After that, the cell was champed at a holding potential of −40 mV, then depolarized to +60 mV and followed by a conversely declining ramp stimuli at a speed of 80 mV·s^−1 and 2 s conditioning pulse, then repolarized to −100 mV with a frequency of 0.05 Hz. Under the stimulation protocol, current from outward to the inward direction was recorded by perfusing modified biphasical Tyrode solution (in which the outward and inward currents can be recorded simultaneously) with the addition of 1 mmol·L^−1 of BaCl2 and 2 mmol·L^−1 of CsCl to block K^+ channels, 1 μmol·L^−1 of verapamil to block L-type Ca^2+ channels, and 20 μmol·L^−1 of ouabain to block Na^+/K^+ ATPase, and 20 mmol·L^−1 of TEA to block potassium channels. The recorded inward currents were presented in a linear manner owing to the blockade of other time-dependent currents. With the increase of intracellular Na^+ level and prolongation of time, the reverse mode of Na^+/Ca^2+ exchange process was activated. […] Under such experimental conditioning, the maximum reverse mode current was recorded 3 min after cell crushed. No significant “run-down” was observed within the record period of 8 minutes. The inward and outward current were inhibited by 5 mmol·L^−1 of Ni^2+ treatment, and the experiment result in two current-voltage curves in the absence or presence of Ni^2+. The Ni^2+ sensitive current, also called electrophysiological Na^+/Ca^2+ exchange current (INa·Ca), was the minus result of two current-voltage curves. The reverse mode potential of INa—Ca was about −20 mV
Male guinea pigs weighting 250˜280 g provided by the Animal Center of the Chinese Academy of Medical Sciences were hammered and sacrificed. The chest was opened and the heart was removed quickly. Fatty tissue and pericardium were removed in a Ca^2+-free solution at 4° C., and heart was sequentially mounted on a Langendorff apparatus. First, the heart was perfused conversely via the aorta for 6 min with Ca^2+-free solution in order to wash out residual blood, then the heart expands and the color of it turns to pink. Then the heart was perfused with Ca^2+-free solution containing 0.1 mg/ml of pronase E, 0.5 mg/ml defatted bovine serum albumin (BSA) and 150 μM Ca^2+ for 2˜3 min, until the heart expanded and became soft. The atrium was removed, and the digested heart was minced with scissors, stirred in a beaker at 37° C. for 5˜10 min. The supernatant was diluted with Ca^2+-free solution containing 0.5 mg/ml BSA and 1.8 mM Ca^2+. The supernatant was placed at room temperature (20˜24° C.) for 1 hr and then subjected to the experiment. During the whole perfusion period, pressure was kept at 70 cmH2O and the temperature of solution was kept at 37° C. with continuously gassed with 95% O2 and 5% CO2.
Rod-shaped cells with clear striations and intact membrane were used. […]

[2] = test system: arrhythmia caused by ischemia/reperfusion insults in anaesthetic rats; test: Ischemia/reperfusion arrhythmia in anaesthetic rats, intravenous injection; assay type: in vivo, rat; details: rats
Description: (1) Protective Effects of the Tested Compounds on Myocardial Insults in Rats after Intravenously Injection
Arrhythmic potency induced by myocardial insults was used to assess the potential protective effect of the compounds.

[3] = test system: isolated rat hearts subjected to ischemia-reperfusion (I/R); test: Isolated heart subjected to ischemia/reperfusion injury (arrhythmia); details: 10^−6 M; isolated heart ischemia/reperfusion
Experimental: Based on the pre-electrophysiological cell model screening, we have compared the inhibition ratios of the outward current by reverse-transportation of Na^+/Ca^2+ exchange, and further in vitro tests on isolated rat hearts subjected to ischemia-reperfusion (I/R) were conducted. Prolongation of ventricular arrhythmic, incidence rate of ventricular extrasystole, ventricular tachycardia/ventricular fibrillation (VT/VF) were recorded to evaluate the protective actions of drugs on myocardial injury.
On the basis of above screening results obtained from electrophysiological studies, and the result from comparative study on the research of the inhibitory effect of compounds on reverse mode Na^+/Ca^2+ exchange process, 7 effective compounds were subjected to in vitro study. Among which, IMM-313, IMM-004 and IMM-132 have structures containing chlorine; IMM-127, IMM-128 and IMM-129 have structures containing fluorine; and IMM-065 has a structure containing OH. The experiment performed in the isolated heart subjected to ischemia/reprefusion insult. Prolongation of ventricular arrhythmic, incidence of ventricular extrasystole, ventricular tachycardia/ventricular fibrillation (VT/VF) were recorded in order to evaluate the protective actions of drugs on myocardial injury.

[4] = screening of 22 candidate compounds
[5] = Example 1 table, myocardial cell
[6] = 0.3 mg/Kg intravenous (femoral vein)

inhibitory ratio on INa—Ca at −80 mV ([1]; 10 μM): 6%
inhibitory ratio on INa—Ca at +50 mV ([1]; 10 μM): 15%
inhibitory ratio on INa—Ca at −80 mV ([1]; 30 μM): 15%
inhibitory ratio on INa—Ca at +50 mV ([1]; 30 μM): 23%
inhibitory ratio on INa—Ca at −80 mV ([1]; 100 μM): 23%
inhibitory ratio on INa—Ca at +50 mV ([1]; 100 μM): 41%
effective concentration (significant inhibitory effect on reverse mode Na^+/Ca^2+ exchange) [1]: above 10^−5 mol·L^−1
SMILES: N=C(N)NC(=O)c1nc(Cl)c(N)nc1N [Amiloride, reference compound]

SMILES: O=c1c2ccccc2[se]n1-c1ccncc1 [IMM-001, 2-(4-pyridyl)-1,2-benzisoselenazol-3(2H)-one]
incidence and duration of VT, VF, VE / ventricular arrhythmic ([2]; 3 mg/Kg intravenous (femoral vein)): all reduced
inhibitory ratio on INa—Ca at −80 mV ([1]; 0.1 μM): 15%
inhibitory ratio on INa—Ca at +50 mV ([1]; 0.1 μM): 28%
inhibitory ratio on INa—Ca at −80 mV ([1]; 1 μM): 24%
inhibitory ratio on INa—Ca at +50 mV ([1]; 1 μM): 48%
inhibitory ratio on INa—Ca at −80 mV ([1]; 10 μM): 42%
inhibitory ratio on INa—Ca at +50 mV ([1]; 10 μM): 66%
selectivity of inhibition of outward versus inward INa—Ca [1]: high selectivity
effective concentration (significant inhibitory effect on reverse mode Na^+/Ca^2+ exchange) [1]: 10^−7 to 10^−5 mol·L^−1

SMILES: O=c1c2ccccc2[se]n1/C=C/C1N=CCN1 (stereo not drawn) [IMM-002, 2-[(3,4-dihydroimidazol-2-yl)-2-ethenyl]-1,2-benz-isoselenazol-3(2H)-one]
Inhibitory rate of inward INa—Ca (%) [1, 4]: 34%
Inhibitory rate of outward INa—Ca (%) [1, 4]: 32* %

SMILES: O=c1c2ccccc2[se]n1-c1cccc2cccnc12 [IMM-003, 2-(8-quinolinyl)-1,2-benz-isoselenazol-3(2H)-one]
Inhibitory rate of outward INa—Ca (%) [1, 4]: 22%

SMILES: O=c1c2ccccc2[se]n1-c1cccnc1 [IMM-030, 2-(3-pyridyl)-1,2-benzisoselenazol-3(2H)-one]
Inhibitory rate of inward INa—Ca (%) [1, 4]: 17%
Inhibitory rate of outward INa—Ca (%) [1, 4]: 12%

SMILES: O=c1c2ccccc2[se]n1Cc1ccccn1 [IMM-058, 2-(2-pyridylmethyl)-1,2-benz-isoselenazol-3(2H)-one]
Inhibitory rate of outward INa—Ca (%) [1, 4]: 3%

SMILES: O=c1c2ccccc2[se]n1Cc1ccco1 [IMM-059, 2-(2-furanylmethyl)-1,2-benz-isoselenazol-3(2H)-one]
Inhibitory rate of inward INa—Ca (%) [1, 4]: 15%
Inhibitory rate of outward INa—Ca (%) [1, 4]: 8%

SMILES: O=c1c2cc(Cl)ccc2[se]n1-c1cccnc1 [IMM-125, 5-chloro-2-(3-pyridyl)-1,2-benz-isoselenazol-3(2H)-one]
Inhibitory rate of inward INa—Ca (%) [1, 4]: 14%
Inhibitory rate of outward INa—Ca (%) [1, 4]: 35%

SMILES: O=c1c2cc(F)ccc2[se]n1-c1ccncc1 [IMM-129, 5-fluoro-2-(4-pyridyl)-1,2-benz-isoselenazol-3(2H)-one]
AAT: arrhythmic occurrence time, Time [3]: 23.67 ± 3.87 min
VF (ventricular fibrillation) Incidence rate (%) [3]: 63%
VPS (ventricular premature beats) Incidence rate (%) [3]: 37.5%
VT (ventricular tachycardia) Incidence rate (%) [3]: 75%
Inhibitory rate of inward INa—Ca (%) [1, 5]: 57%
Inhibitory rate of outward INa—Ca (%) [1, 5]: 59%
Inhibitory rate of inward INa—Ca (%) [1, 4]: 57* %
Inhibitory rate of outward INa—Ca (%) [1, 4]: 59* %

SMILES: O=c1c2cc(F)ccc2[se]n1-c1ccccc1 [IMM-130, 5-fluoro-2-phenyl-1,2-benz-isoselenazol-3(2H)-one]
Inhibitory rate of inward INa—Ca (%) [1, 4]: 43%
Inhibitory rate of outward INa—Ca (%) [1, 4]: 30%

SMILES: O=c1c2cc(Cl)ccc2[se]n1-c1ccccc1 [IMM-131, 5-chloro-2-phenyl-1,2-benz-isoselenazol-3(2H)-one]
Inhibitory rate of inward INa—Ca (%) [1, 4]: 15%
Inhibitory rate of outward INa—Ca (%) [1, 4]: 22%

SMILES: O=c1c2cc(Cl)ccc2[se]n1-c1ccncc1 [IMM-132, 5-chloro-2-(4-pyridyl)-1,2-benz-isoselenazol-3(2H)-one]
AAT: arrhythmic occurrence time, Time [3]: 29.13 ± 0.69 min
VF (ventricular fibrillation) Incidence rate (%) [3]: 85.7%
VPS (ventricular premature beats) Incidence rate (%) [3]: 28.6%
VT (ventricular tachycardia) Incidence rate (%) [3]: 85.7%
Inhibitory rate of inward INa—Ca (%) [1, 5]: 14%
Inhibitory rate of outward INa—Ca (%) [1, 5]: 44%
Inhibitory rate of inward INa—Ca (%) [1, 4]: 14%
Inhibitory rate of outward INa—Ca (%) [1, 4]: 44* %

SMILES: O=c1c2ccc(Cl)cc2[se]n1-c1cccnc1 [IMM-141, 6-chloro-2-(3-pyridyl)-1,2-benz-isoselenazol-3(2H)-one]
Inhibitory rate of inward INa—Ca (%) [1, 4]: 2%

SMILES: O=c1c2ccc(Cl)cc2[se]n1-c1ccccn1 [IMM-142, 6-chloro-2-(2-pyridyl)-1,2-benz-isoselenazol-3(2H)-one]
Inhibitory rate of inward INa—Ca (%) [1, 4]: 57%
Inhibitory rate of outward INa—Ca (%) [1, 4]: 46%

SMILES: O=c1c2cc(O)ccc2[se]n1-c1ccccn1 [IMM-163, 5-hydroxy-2-(2pyridyl)-1,2-benz-isoselenazol-3(2H)-one]
Inhibitory rate of inward INa—Ca (%) [1, 4]: 19%
Inhibitory rate of outward INa—Ca (%) [1, 4]: 14%

SMILES: O=c1c2cc(O)ccc2[se]n1-c1ccccc1 [IMM-164, 5-hydroxy-2-phenyl-1,2-benz-isoselenazol-3(2H)-one]
Inhibitory rate of inward INa—Ca (%) [1, 4]: 22%
Inhibitory rate of outward INa—Ca (%) [1, 4]: 8%

SMILES: CCCCC1OC(=O)c2cccc(-n3[se]c4ccccc4c3=O)c21 (stereo not drawn) [IMM-623, 2-[4-(7-n-butyl-benzo(1,2-c-di-hydrofuran-2-one))]-1,2-benz-isoselenazol-3(2H)-one]
Inhibitory rate of inward INa—Ca (%) [1, 4]: 15%
Inhibitory rate of outward INa—Ca (%) [1, 4]: 11%

inhibitory ratio on INa—Ca at −80 mV ([1]; 1 μM): 22%
inhibitory ratio on INa—Ca at +50 mV ([1]; 1 μM): 29%
inhibitory ratio on INa—Ca at −80 mV ([1]; 10 μM): 57%
inhibitory ratio on INa—Ca at +50 mV ([1]; 10 μM): 61%
selectivity of inhibition of outward versus inward INa—Ca [1]: without selectivity
selectivity of inhibition of outward versus inward INa—Ca ([1]; listed as KB-R794): poor selectivity
SMILES: N=C(N)SCCc1ccc(OCc2ccc([N+](=O)[O-])cc2)cc1 [KB-R7943, 2-[2-[4-(4-nitrobenzyloxy)phenyl]]isothiourea, reference compound]

SMILES: COc1ccc(CCN(C)CCCC(C#N)(c2ccc(OC)c(OC)c2)C(C)C)cc1OC (stereo not drawn) [Verapamil, reference compound]
incidence of VT, VF, VE and duration of arrhythmic [2, 6]: all reduced
latency of ventricular arrhythmic [2, 6]: significantly prolonged
